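These data come from cells grown in 96-well plates and exposed to compound for 48 hours at five concentrations. Abbreviation: GI50, concentration required for 50% inhibition of growth.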 Active and inactive are the calls of the source. Rule as the data show it: active = GI50 up to about 1.1 µM and inactive = higher.
Experiments:
Experiment in all cases: NCI anticancer screen, dose series, 48 h
[1] = system: CAKI-1
[2] = system: 786-0
[3] = system: NCI-H226
[4] = system: NCI-H522
[5] = system: HT-29
[6] = system: KM12
[7] = system: PC-3
[8] = system: SF-295
[9] = system: EKVX
[10] = system: RPMI-8226
[11] = system: NCI-H460
[12] = system: UO-31
[13] = system: K562
[14] = system: SN12C
[15] = system: Malme-3M
[16] = system: UACC-257
[17] = system: MCF7
[18] = system: CCRF-CEM
[19] = system: SNB-75
[20] = system: MDA-MB-435

Measured: GI50

C[C@]12CCC(=O)C=C1C[C@@H](O)[C@@H]1[C@@H]2CC[C@@]2(C)[C@H]1CC[C@]2(C)O
inactive: [1] > 100 µM | [2] > 100 µM | [3] > 100 µM | [4] > 100 µM | [5] > 100 µM | [6] > 100 µM | [7] > 100 µM | [8] > 100 µM | [9] > 100 µM | [10] > 100 µM | [11] > 100 µM | [12] > 100 µM | [13] > 100 µM | [14] > 100 µM | [15] > 100 µM | [16] > 100 µM | [17] > 100 µM | [18] > 100 µM | [19] > 100 µM | [20] > 100 µM

O=[N+]([O-])CC(SCc1ccccc1)c1ccc2c(c1)OCO2 (stereo not given)
inactive: [1] 14.2 µM | [2] 1.68 µM | [3] 7.91 µM | [4] 11.5 µM | [5] 2.61 µM | [6] 6.84 µM | [7] 16.8 µM | [8] 7.76 µM | [9] 20.2 µM | [10] 1.57 µM | [11] 14.8 µM | [12] 8.26 µM | [13] 1.55 µM | [14] 11.7 µM | [15] 14.9 µM | [16] 6.79 µM | [17] 3.04 µM | [18] 2.54 µM | [19] 15.1 µM | [20] 2.5 µM

CC(C)=CCNc1nc(Cl)nc2[nH]cnc12
inactive: [1] > 100 µM | [2] 49.4 µM | [3] > 100 µM | [4] > 100 µM | [5] > 100 µM | [6] > 100 µM | [7] > 100 µM | [8] 42.6 µM | [9] 15.7 µM | [10] > 100 µM | [11] 16.7 µM | [12] 37.4 µM | [13] 32.1 µM | [14] 57.7 µM | [15] 86.9 µM | [16] 27.1 µM | [17] 29.6 µM | [18] 76.6 µM | [19] > 100 µM | [20] > 100 µM

CC1=C(C(=O)N(C)c2ccc(Cl)c(C(=O)OC(C)C)c2)SCCO1
inactive: [1] > 100 µM | [2] > 100 µM | [3] 44.6 µM | [4] 44.9 µM | [5] 46.7 µM | [6] 55 µM | [7] 38.5 µM | [8] 60.1 µM | [9] 41.8 µM | [10] 26.6 µM | [11] > 100 µM | [12] 27.2 µM | [13] 29 µM | [14] > 100 µM | [15] 72.3 µM | [16] 43.3 µM | [17] 66.5 µM | [18] > 100 µM | [19] 18.7 µM | [20] 48.6 µM

COc1ccc(CC2c3cc4c(cc3CCN2C)OCO4)c(C=O)c1OC (stereo not given)
inactive: [1] 60.5 µM | [2] > 100 µM | [3] 57.9 µM | [4] > 100 µM | [5] > 100 µM | [6] > 100 µM | [7] > 100 µM | [8] > 100 µM | [9] > 100 µM | [10] > 100 µM | [11] > 100 µM | [12] > 100 µM | [13] > 100 µM | [14] > 100 µM | [15] > 100 µM | [16] > 100 µM | [17] > 100 µM | [18] > 100 µM | [19] 40.8 µM | [20] > 100 µM

OCC(S)CS.[Bi] (stereo not given)
inactive: [1] 11.8 µM | [2] 11.2 µM | [3] 51.8 µM | [4] 1.58 µM | [5] 19 µM | [6] 19.1 µM | [7] 13.1 µM | [8] 48.2 µM | [9] 18 µM | [10] 2.93 µM | [11] 13.4 µM | [12] 16.7 µM | [13] 5.68 µM | [14] 15.8 µM | [15] 3.97 µM | [16] 13 µM | [17] 18.5 µM | [18] 1.25 µM | [19] 11.1 µM | [20] 15.2 µM

O=C(NN1C(=O)C=CC1=O)c1ccccc1Nc1ccccc1C(=O)NN1C(=O)C=CC1=O
inactive: [1] > 100 µM | [2] > 100 µM | [3] > 100 µM | [4] > 100 µM | [5] > 100 µM | [6] > 100 µM | [7] > 100 µM | [8] > 100 µM | [9] > 100 µM | [10] > 100 µM | [11] > 100 µM | [12] > 100 µM | [13] > 100 µM | [14] > 100 µM | [15] > 100 µM | [16] > 100 µM | [17] > 100 µM | [18] > 100 µM | [19] > 100 µM | [20] > 100 µM

Cc1ccc(C(=O)Nc2ccc(CP(=O)(O)O)cc2CP(=O)(O)O)cc1NC(=O)c1cccc(NC(=O)Nc2cccc(C(=O)Nc3cc(C(=O)Nc4ccc(CP(=O)(O)O)cc4CP(=O)(O)O)ccc3C)c2)c1
inactive: [1] > 100 µM | [2] > 100 µM | [3] > 100 µM | [4] > 100 µM | [5] > 100 µM | [6] > 100 µM | [7] > 100 µM | [8] > 100 µM | [9] > 100 µM | [10] > 100 µM | [11] > 100 µM | [12] > 100 µM | [13] > 100 µM | [14] > 100 µM | [15] > 100 µM | [16] > 100 µM | [17] > 100 µM | [18] > 100 µM | [19] > 100 µM | [20] > 100 µM

— ChEMBL document CHEMBL1201862, “PubChem BioAssay data set” (2004)
